Measurements from ChEMBL document CHEMBL4393738, “Design of hybrid molecules as antimycobacterial compounds: Synthesis of isoniazid-naphthoquinone derivatives and their activity against susceptible and resistant strains of Mycobacterium tuberculosis” (Bioorg Med Chem, 2019).
In brackets after ≈: the same amount, converted by molar mass.

How the values were obtained:
[1] = Selectivity index, ratio of IC50 for mouse J774.A1 cells to MIC for Mycobacterium tuberculosis H37Rv; type: toxicity; settings: read-out: Selectivity Index
J774.A1 = test: Cytotoxicity against mouse J774.A1 cells measured after 24 hrs by resazurin based assay; type: cell-based; settings: J774.A1, 24 h
[2] = Selectivity index, ratio of IC50 for mouse J774.A1 cells to MIC for Mycobacterium tuberculosis INH R2; type: toxicity; settings: read-out: Selectivity Index
[3] = Selectivity index, ratio of IC50 for mouse J774.A1 cells to MIC for Mycobacterium tuberculosis INH R1 ATCC 35822; type: toxicity; settings: read-out: Selectivity Index

## CC1(C)OC2=C(CC1Br)C(=O)C(=O)c1ccccc12 (stereo not given)
[1]
  selectivity ratio: 0.3
J774.A1
  IC50: 1.93 µg/mL (≈ 6.01 µM)
[2]
  selectivity ratio: 0.6
[3]
  selectivity ratio: 0.3

## CC1(C)OC2=C(C(=O)C(=O)c3ccccc32)C1Nc1ccccc1 (stereo not given)
[1]
  selectivity ratio: 0.6
J774.A1
  IC50: 1.82 µg/mL (≈ 5.7 µM)
[2]
  selectivity ratio: 0.3
[3]
  selectivity ratio: 0.6

## O=C1C(=O)c2ccccc2C2=C1CC(Cn1cc(-c3ccccc3)nn1)O2 (stereo not given)
[1]
  selectivity ratio: 0.2
J774.A1
  IC50: 2.94 µg/mL (≈ 8.23 µM)
[2]
  selectivity ratio: 0.1
[3]
  selectivity ratio: 0.1

## CC1CC2=C(O1)c1ccccc1/C(=N/NC(=O)c1ccncc1)C2=O (stereo not given)
[1]
  selectivity ratio: > 16
J774.A1
  IC50: > 200 µg/mL
[2]
  selectivity ratio: > 8
[3]
  selectivity ratio: > 16

## CC1(C)OC2=C(CC1I)C(=O)C(=O)c1ccccc12 (stereo not given)
[1]
  selectivity ratio: 1
J774.A1
  IC50: 3.2 µg/mL (≈ 8.69 µM)
[2]
  selectivity ratio: 0.5
[3]
  selectivity ratio: 1

## CC1(C)OC2=C(C(=O)/C(=N\NC(=O)c3ccncc3)c3ccccc32)[C@H](n2cc(-c3ccccc3)nn2)[C@H]1Br
[1]
  selectivity ratio: 0.9
J774.A1
  IC50: 175 µg/mL (≈ 300 µM)
[2]
  selectivity ratio: < 0.9
[3]
  selectivity ratio: 0.9

## CC1(C)CC2=C(O1)c1ccccc1/C(=N/NC(=O)c1ccncc1)C2=O
[1]
  selectivity ratio: > 250
J774.A1
  IC50: > 200 µg/mL
[2]
  selectivity ratio: > 32
[3]
  selectivity ratio: > 4

## CC1(C)OC2=C(CC1Br)C(=O)/C(=N\NC(=O)c1ccncc1)c1ccccc12 (stereo not given)
[1]
  selectivity ratio: > 16
J774.A1
  IC50: > 200 µg/mL
[2]
  selectivity ratio: > 16
[3]
  selectivity ratio: > 16

## CC1(C)OC2=C(C(=O)/C(=N\NC(=O)c3ccncc3)c3ccccc32)C1n1cc(-c2ccccc2)nn1 (stereo not given)
[1]
  selectivity ratio: 8.1
J774.A1
  IC50: 101 µg/mL (≈ 207 µM)
[2]
  selectivity ratio: 8.1
[3]
  selectivity ratio: 8.1

## CC1(C)OC2=C(C(=O)C(=O)c3ccccc32)C1n1cc(-c2ccccc2)nn1 (stereo not given)
[1]
  selectivity ratio: 0.3
J774.A1
  IC50: 2.11 µg/mL (≈ 5.68 µM)
[2]
  selectivity ratio: 0.1
[3]
  selectivity ratio: 0.1

## O=C1C2=C(OC(Cn3cc(-c4ccccc4)nn3)C2)c2ccccc2/C1=N/NC(=O)c1ccncc1 (stereo not given)
[1]
  selectivity ratio: 1.5
J774.A1
  IC50: 18.4 µg/mL (≈ 38.6 µM)
[2]
  selectivity ratio: 0.4
[3]
  selectivity ratio: 0.4

## CC1(C)OC2=C(C(=O)/C(=N\NC(=O)c3ccncc3)c3ccccc32)C1Nc1ccccc1 (stereo not given)
[1]
  selectivity ratio: 3
J774.A1
  IC50: 74.2 µg/mL (≈ 169 µM)
[2]
  selectivity ratio: 3
[3]
  selectivity ratio: 0.7

## CC1(C)OC2=C(C(=O)/C(=N\NC(=O)c3ccncc3)c3ccccc32)C1O (stereo not given)
[1]
  selectivity ratio: > 32
J774.A1
  IC50: > 200 µg/mL
[2]
  selectivity ratio: > 2
[3]
  selectivity ratio: > 1

## CC1(C)CC2=C(O1)/C(=N\NC(=O)c1ccncc1)c1ccccc1C2=O
[1]
  selectivity ratio: 0.7
J774.A1
  IC50: 17 µg/mL (≈ 48.9 µM)
[2]
  selectivity ratio: 0.1
[3]
  selectivity ratio: 0.2

## CC1(C)CCC2=C(O1)c1ccccc1/C(=N/NC(=O)c1ccncc1)C2=O
[1]
  selectivity ratio: > 250
J774.A1
  IC50: > 200 µg/mL
[2]
  selectivity ratio: > 32
[3]
  selectivity ratio: > 4

## CC1(C)OC2=C(CC1I)C(=O)/C(=N\NC(=O)c1ccncc1)c1ccccc12 (stereo not given)
[1]
  selectivity ratio: 0.3
J774.A1
  IC50: 30.8 µg/mL (≈ 63.1 µM)
[2]
  selectivity ratio: 0.3
[3]
  selectivity ratio: 0.3

## CC1(C)OC2=C(C(=O)C(=O)c3ccccc32)C1O (stereo not given)
[1]
  selectivity ratio: 0.3
J774.A1
  IC50: 3.67 µg/mL (≈ 15 µM)
[2]
  selectivity ratio: 0.1
[3]
  selectivity ratio: 0.1

## CC1(C)CC2=C(O1)C(=O)c1ccccc1C2=O
[1]
  selectivity ratio: 1.5
J774.A1
  IC50: 18.6 µg/mL (≈ 81.6 µM)
[2]
  selectivity ratio: 0.7
[3]
  selectivity ratio: 0.7

## CC1(C)OC2=C(C(=O)C(=O)c3ccccc32)[C@H](n2cc(-c3ccccc3)nn2)[C@H]1Br (racemic)
[1]
  selectivity ratio: 0.9
J774.A1
  IC50: 1.47 µg/mL (≈ 3.17 µM)
[2]
  selectivity ratio: 0.1
[3]
  selectivity ratio: 0.2

## CC1(C)CCC2=C(O1)C(=O)c1ccccc1C2=O [ALPHA-LAPACHONE]
J774.A1
  IC50: 285 µg/mL (≈ 1180 µM)

## CC1(C)CCC2=C(O1)c1ccccc1C(=O)C2=O [LAPACHONE]
[1]
  selectivity ratio: > 32
J774.A1
  IC50: > 200 µg/mL
[2]
  selectivity ratio: > 32
[3]
  selectivity ratio: > 64

## CC1(C)CC2=C(O1)c1ccccc1C(=O)C2=O [NOR-BETA-LAPACHONE]
[1]
  selectivity ratio: 1.2
J774.A1
  IC50: 3.69 µg/mL (≈ 16.2 µM)
[2]
  selectivity ratio: 0.6
[3]
  selectivity ratio: 0.3
